In patent US20100068208A1, “Degranulation inhibitor” (priority 2005, published 2010):

Columns and labels:
[1] = system: human mast cell line LAD 2; assay: Expression of TNF-α, CCL-2 or CCL-5 mRNA in LAD 2 (TaqMan PCR); type: cell-based; conditions: 1 μM
Procedure: Human mast cell line LAD 2 was cultured in StemPro-34 medium (Invitrogen) supplemented with 100 ng/mL of stem cell factor (Immuno-Biological Laboratories Co., Ltd.). […] A 750 μL aliquot was inoculated on a 24-well plate, which was then allowed to stand in a CO2 incubator at 37° C. for 30 minutes. […] The assay was performed for the respective reaction conditions in n=3. The plate was ice-chilled 0.5, 2, 8 and 24 hours after to stop the activation of LAD 2. After centrifugation at 300×g for 5 minutes, total RNA was extracted from the precipitated cells using RNeasy Mini Kit (Qiagen) according to the protocol attached. Further in the experiments where expression levels upon stimulation by various TGR12 ligands were analyzed, LAD 2 was centrifuged at 300×g for 5 minutes and the cells precipitated were counted and suspended in the medium at 1.33×10^6 cells/mL. A 750 μL aliquot was inoculated on a 24-well plate, which was allowed to stand in a CO2 incubator at 37° C. for 30 minutes. […] The assay was performed for the respective reaction conditions in n=3. Two hours after, the plate was ice-chilled to stop the activation of LAD 2. After centrifugation at 300×g for 5 minutes, total RNA was extracted from the precipitated cells using RNeasy Mini Kit (Qiagen) according to the protocol attached. The total RNA obtained as described above was concentrated using ethachinmate according to the protocol attached and dissolved in RNase-free H2O, Next, using the solution corresponding to […] of total RNA, reverse transcription was performed by the following procedure using SuperScript II reverse transcriptase (Invitrogen) to synthesize single stranded cDNA. To the total RNA solution, 0.1 μg of random primer (Invitrogen) and 1 μL of 10 mM dNTP (Invitrogen) were added and then RNase-free H2O was added to make the whole volume 12 μL. The mixture was then incubated at 70° C. for 10 minutes and ice-cooled for a minute. After 4 μL of 5× First-Strand Buffer (attached to SuperScript II reverse transcriptase), 2 μL of 0.1M DTT (attached to SuperScript II reverse transcriptase), 1 μL of RNaseOUT (Invitrogen) and 1 μL of SuperScript II reverse transcriptase were added, the mixture was incubated at 42° C. for 50 minutes, then at 70° C. for 15 minutes and ice-cooled for 5 minutes. The thus obtained cDNA was purified using ethachinmate in accordance with the protocol attached and dissolved in Tris-EDTA buffer (Fluka).
In TaqMan PCR below, hTNFalpha-tF (SEQ ID NO: 33) and hTNFalpha-tR (SEQ ID NO: 34) were used as primers for human TNF-α quantification, hTNFalpha-tP (SEQ ID NO: 35) as a probe and hTNFalpha-standard (SEQ ID NO: 36) as a standard. For human CCL-5 quantification, hCCL5-tF (SEQ ID NO: 37) and hCCL5-tR (SEQ ID NO: 38) were used as primers, hCCL5-tP (SEQ ID NO: 39) as a probe and hCCL5 standard (SEQ ID NO: 40) as a standard. For human CCL-2 quantification, hCCL2-tF (SEQ ID NO: 41) and hCCL2-tR (SEQ ID NO: 42) were used as primers, hCCL2-tP (SEQ ID NO: 43) as a probe and hCCL2 standard (SEQ ID NO: 44) as a standard.
TaqMan PCR was performed in n=2 for each sample in a liquid volume of 15 μl using 12.5 ng of total RNA as a template. The reaction solution was composed of 900 nM primer, 250 nM probe and ½ volume of TaqMan Universal PCR Master Mix (Applied Biosystems). The reaction and analysis were performed by ABI PRISM 7900HT Sequence Detection System (Applied Biosystems). After keeping warm at 50° C. for 2 minutes and then at 95° C. for 10 minutes, the reaction cycle was set in one cycle to include 95° C. for 15 seconds and 60° C. for 1 minute and repeating the cycle 40 times.

[2] = system: RBL-2H3; assay: Intracellular calcium increasing activity in RBL2H3 (FLIPR); type: cell-based; set-up: unit not given here
Procedure: (§1) RBL-2H3 (hereinafter RBL2H3) was incubated in α-MEM (Invitrogen) supplemented with 10% fetal calf serum. Vector plasmid pcDNA3.1 for animal cell expression, in which the nucleotide sequence containing the initiation codon to the termination codon of human TGR12 (DNA having the nucleotide sequence represented by SEQ ID NO: 32) was incorporated, was stably expressed in RBL-2H3 to establish human TGR12-expressed RBL-2H3 cell line (hereinafter RBL2H3-TGR12). RBL2H3-TGR12 was incubated in α-MEM (Invitrogen) supplemented with 10% fetal calf serum and 200 μg/mL of Geneticin.
The intracellular calcium increasing activity was assayed as follows. RBL2H3 and RBL2H3-TGR12 were plated in a 96-well plate at a density of 40,000 cells/well and incubated overnight. The medium was then discarded and 100 μL/well of 4 μM Fluo3-AM (Dojin Kagaku)-containing assay buffer [Hank's Balanced Salt Solution (Invitrogen), 20 mM HEPES (Dojin Kagaku) and 2.5 mM Probenecid (Sigma)] was added. The mixture was allowed to stand for an hour at 37° C. Various TGR12 (Peptide Institute, Inc.) or calcium ionophore A23187 (Wako Pure Chemical) was diluted in 0.05% CHAPS-containing assay buffer. After the cells were washed with the assay buffer, fluorescence emitted with changes in intracellular calcium was measured using FLIPR (Molecular Device). A sample, 50 μL, was added at a rate of 50 μL/sec. 10 seconds after initiation of the assay. Fluorescence was measured every 1 second during the first 60 seconds and every 6 seconds during the next 120 seconds. The highest fluorescence intensity during 3 minutes was made the maximum activity under the stimulation conditions, which was taken as an average of 3 wells. The EC50 values were calculated using Graphpad PRISM 4 (Graphpad Software).

[3] = system: RBL-2H3; assay: Degranulation promoting effect in RBL2H3 (β-hexosaminidase release); type: cell-based
Procedure: as §1
The degranulation promoting effect was determined as follows. RBL2H3 and RBL2H3-TGR12 were plated into a 96-well plate at a density of 40,000 cells/well and incubated overnight. Afterward the medium was discarded. […] The β-hexosaminidase activity in the supernatant for the degranulation assay was measured as follows to determine the degree of degranulation. The supernatant was dispensed into a 96-well plate and a 5-fold volume of 0.1M citrate (pH 4.5)/1 mM 4-methyl umbelliferyl-2-acetamido-2-deoxy-beta-D-glucopyranoside (Wako Pure Chemical) based on the volume of the supernatant was added thereto, followed by incubation at 37° C. for an hour. Subsequently, a 0.1-fold volume of 0.2 M glycine/NaCO3 (pH 10.7) based on the volume of the reaction solution was added to stop the reaction and the fluorescence was measured using Fusion-α (Perkin Elmer). For the β-hexosaminidase activity, the activity in the supernatant, which was obtained by likewise plating RBL2H3 and RBL2H3-TGR12GFP onto the plate, detaching the same with trypsin/EDTA, freeze-thawing 4 times and then centrifugation, was made the total β-hexosaminidase activity in LAD 2. The degree of degranulation was shown by a ratio of the β-hexosaminidase activity in the LAD 2 supernatant to the total β-hexosaminidase activity.

[4] = target: TGR12-GFP (fused protein of human TGR12 and GFP, encoded by the DNA of SEQ ID NO: 31), stably expressed on CHO cells (CHO-TGR12 of Example 1) (human) (UniProt Q96LB1); assay: cell-based or functional assay
[5] = target: T1, human TGR12 (untagged) (human, UniProt Q96LB1 1-330); assay: cell-based or functional assay
T1 sequence: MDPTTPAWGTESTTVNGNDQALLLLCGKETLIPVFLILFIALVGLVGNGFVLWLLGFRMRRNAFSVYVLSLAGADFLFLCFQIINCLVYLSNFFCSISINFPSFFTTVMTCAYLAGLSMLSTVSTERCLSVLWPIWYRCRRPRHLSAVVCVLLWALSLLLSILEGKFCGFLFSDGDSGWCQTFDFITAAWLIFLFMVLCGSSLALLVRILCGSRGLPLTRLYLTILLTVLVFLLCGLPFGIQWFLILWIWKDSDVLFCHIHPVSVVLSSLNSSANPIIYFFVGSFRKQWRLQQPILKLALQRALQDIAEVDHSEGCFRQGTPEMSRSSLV

[6] = time course, 0.5 hours after the stimulation
[7] = time course, 2 hours after the stimulation
[8] = time course, 8 hours after the stimulation
[9] = time course, 24 hours after the stimulation
[10] = various TGR12 ligands experiment, two hours after stimulation

CSCC[C@H](NC(=O)[C@H](CC(C)C)NC(=O)CNC(=O)[C@H](Cc1ccccc1)NC(=O)[C@H](Cc1ccccc1)NC(=O)[C@H](CCC(N)=O)NC(=O)[C@H](CCC(N)=O)NC(=O)[C@@H]1CCCN1C(=O)[C@H](CCCCN)NC(=O)[C@@H]1CCCN1C(=O)[C@@H](N)CCCNC(=N)N)C(N)=O [substance P]
expression level of CCL-5 in LAD 2 [1, 6]: 38107 copies | expression level of TNF-α in LAD 2 [1, 6]: 56065 copies | expression level of CCL-5 in LAD 2 [1, 7]: 88872 copies | expression level of TNF-α in LAD 2 [1, 7]: 1346293 copies | expression level of CCL-5 in LAD 2 [1, 8]: 69921 copies | expression level of TNF-α in LAD 2 [1, 8]: 54313 copies | expression level of CCL-5 in LAD 2 [1, 9]: 53605 copies | expression level of TNF-α in LAD 2 [1, 9]: 4332 copies | expression level of CCL-2 in LAD 2 [1, 10]: 2694837 copies | expression level of CCL-5 in LAD 2 [1, 10]: 47117 copies | expression level of TNF-α in LAD 2 [1, 10]: 173462 copies | maximum activity in the calcium increasing effect ([2]; RBL2H3, 1 nM): 44 | maximum activity in the calcium increasing effect ([2]; RBL2H3, 10 nM): 51 | maximum activity in the calcium increasing effect ([2]; RBL2H3, 100 nM): 50 | maximum activity in the calcium increasing effect ([2]; RBL2H3, 1 μM): 95 | maximum activity in the calcium increasing effect ([2]; RBL2H3, 10 μM): 41 | degranulation (β-hexosaminidase in supernatant to total) ([3]; RBL2H3, 10 nM): 8.8% | degranulation (β-hexosaminidase in supernatant to total) ([3]; RBL2H3, 30 nM): 8.9% | degranulation (β-hexosaminidase in supernatant to total) ([3]; RBL2H3, 100 nM): 8.9% | degranulation (β-hexosaminidase in supernatant to total) ([3]; RBL2H3, 300 nM): 8.5% | degranulation (β-hexosaminidase in supernatant to total) ([3]; RBL2H3, 1 μM): 8.4% | degranulation (β-hexosaminidase in supernatant to total) ([3]; RBL2H3, 3 μM): 7.9%

human PAMP12 (proadrenomedullin N-terminal 20 peptide (9-20)) (from UniProt P35318 30-41)
EC50 in the calcium increasing effect on CHO-TGR12 [4]: 98 nM | maximum activity in the calcium increasing effect (FLIPR), CHO-TGR12, at 0.3 nM (fluorescence intensity) [4]: 255 | maximum activity in the calcium increasing effect (FLIPR), CHO-TGR12, at 3 nM (fluorescence intensity) [4]: 1620 | maximum activity in the calcium increasing effect (FLIPR), CHO-TGR12, at 30 nM (fluorescence intensity) [4]: 22300 | maximum activity in the calcium increasing effect (FLIPR), CHO-TGR12, at 300 nM (fluorescence intensity) [4]: 24100 | maximum activity in the calcium increasing effect (FLIPR), CHO-TGR12, at 3000 nM (fluorescence intensity) [4]: 23700 | EC50 in the degranulation on LAD 2 [5]: 13 nM | degranulation of LAD 2 (beta-hexosaminidase release, % of total) at 3 nM [5]: 6.3% | degranulation of LAD 2 (beta-hexosaminidase release, % of total) at 10 nM [5]: 30.7% | degranulation of LAD 2 (beta-hexosaminidase release, % of total) at 30 nM [5]: 52.1% | degranulation of LAD 2 (beta-hexosaminidase release, % of total) at 100 nM [5]: 65.2% | degranulation of LAD 2 (beta-hexosaminidase release, % of total) at 300 nM [5]: 67.7% | degranulation of LAD 2 (beta-hexosaminidase release, % of total) at 1 µM [5]: 69.3% | maximum activity in the calcium increasing effect (FLIPR), RBL2H3-TGR12, at 1 nM (fluorescence intensity) [5]: 41 | maximum activity in the calcium increasing effect (FLIPR), RBL2H3-TGR12, at 10 nM (fluorescence intensity) [5]: 2090 | maximum activity in the calcium increasing effect (FLIPR), RBL2H3-TGR12, at 100 nM (fluorescence intensity) [5]: 11100 | maximum activity in the calcium increasing effect (FLIPR), RBL2H3-TGR12, at 1 µM (fluorescence intensity) [5]: 12000 | maximum activity in the calcium increasing effect (FLIPR), RBL2H3-TGR12, at 10 µM (fluorescence intensity) [5]: 12300
